One assay addresses T1, JAK3 (Homo sapiens, UniProt P52333).
T1 sequence (P52333 1-1124): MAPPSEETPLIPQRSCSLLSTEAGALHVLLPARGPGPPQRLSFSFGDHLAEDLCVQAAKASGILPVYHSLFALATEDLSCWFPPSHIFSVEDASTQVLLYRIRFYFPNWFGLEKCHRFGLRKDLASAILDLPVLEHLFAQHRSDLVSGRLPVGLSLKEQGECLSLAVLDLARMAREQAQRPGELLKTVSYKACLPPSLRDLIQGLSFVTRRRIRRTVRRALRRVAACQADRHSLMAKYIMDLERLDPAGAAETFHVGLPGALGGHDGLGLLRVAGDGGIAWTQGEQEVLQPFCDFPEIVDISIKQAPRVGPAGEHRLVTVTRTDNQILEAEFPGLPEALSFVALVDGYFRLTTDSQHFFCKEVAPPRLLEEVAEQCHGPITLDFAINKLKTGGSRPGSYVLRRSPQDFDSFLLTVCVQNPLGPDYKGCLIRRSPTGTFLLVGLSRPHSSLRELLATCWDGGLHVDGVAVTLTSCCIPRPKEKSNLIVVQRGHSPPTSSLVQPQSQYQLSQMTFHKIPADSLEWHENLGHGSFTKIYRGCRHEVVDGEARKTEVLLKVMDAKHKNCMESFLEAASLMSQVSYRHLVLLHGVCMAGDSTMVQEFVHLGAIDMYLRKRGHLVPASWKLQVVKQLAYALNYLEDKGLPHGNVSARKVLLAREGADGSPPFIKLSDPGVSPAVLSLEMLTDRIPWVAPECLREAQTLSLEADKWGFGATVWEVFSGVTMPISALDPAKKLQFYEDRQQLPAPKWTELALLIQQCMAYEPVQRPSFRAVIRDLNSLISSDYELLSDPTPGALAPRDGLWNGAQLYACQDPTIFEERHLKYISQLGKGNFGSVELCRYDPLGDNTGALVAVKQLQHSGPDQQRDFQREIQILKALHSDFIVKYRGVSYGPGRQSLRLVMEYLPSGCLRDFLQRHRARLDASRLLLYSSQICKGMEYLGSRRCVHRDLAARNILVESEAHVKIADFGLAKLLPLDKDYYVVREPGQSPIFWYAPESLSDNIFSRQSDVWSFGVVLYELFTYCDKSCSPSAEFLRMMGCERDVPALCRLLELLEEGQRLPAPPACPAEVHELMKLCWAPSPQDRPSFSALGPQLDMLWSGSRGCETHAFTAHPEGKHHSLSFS
Briefly: Inhibition of a panel of kinases, in vitro HotSpot kinase assay: JAK3. In kind it is biochemical. Particulars: D-compounds panel data; 1 μM ATP; read-out: IC50 JAK3.

Another assay concerns the target EGFR (Homo sapiens, UniProt P00533). The experiment in a line: Inhibition of a panel of kinases, in vitro HotSpot kinase assay: EGFR. In kind it is biochemical. Particulars: D-compounds panel data; 1 μM ATP. As for the experimental part: The degree of inhibition of a panel of kinases is determined using the in vitro HotSpot kinase assay (purified enzymes, ^33P-ATP, an appropriate substrate and 1 μM ATP).

pIC50: −log10 of the molar value.

Sequence of EGFR (P00533 25-1210): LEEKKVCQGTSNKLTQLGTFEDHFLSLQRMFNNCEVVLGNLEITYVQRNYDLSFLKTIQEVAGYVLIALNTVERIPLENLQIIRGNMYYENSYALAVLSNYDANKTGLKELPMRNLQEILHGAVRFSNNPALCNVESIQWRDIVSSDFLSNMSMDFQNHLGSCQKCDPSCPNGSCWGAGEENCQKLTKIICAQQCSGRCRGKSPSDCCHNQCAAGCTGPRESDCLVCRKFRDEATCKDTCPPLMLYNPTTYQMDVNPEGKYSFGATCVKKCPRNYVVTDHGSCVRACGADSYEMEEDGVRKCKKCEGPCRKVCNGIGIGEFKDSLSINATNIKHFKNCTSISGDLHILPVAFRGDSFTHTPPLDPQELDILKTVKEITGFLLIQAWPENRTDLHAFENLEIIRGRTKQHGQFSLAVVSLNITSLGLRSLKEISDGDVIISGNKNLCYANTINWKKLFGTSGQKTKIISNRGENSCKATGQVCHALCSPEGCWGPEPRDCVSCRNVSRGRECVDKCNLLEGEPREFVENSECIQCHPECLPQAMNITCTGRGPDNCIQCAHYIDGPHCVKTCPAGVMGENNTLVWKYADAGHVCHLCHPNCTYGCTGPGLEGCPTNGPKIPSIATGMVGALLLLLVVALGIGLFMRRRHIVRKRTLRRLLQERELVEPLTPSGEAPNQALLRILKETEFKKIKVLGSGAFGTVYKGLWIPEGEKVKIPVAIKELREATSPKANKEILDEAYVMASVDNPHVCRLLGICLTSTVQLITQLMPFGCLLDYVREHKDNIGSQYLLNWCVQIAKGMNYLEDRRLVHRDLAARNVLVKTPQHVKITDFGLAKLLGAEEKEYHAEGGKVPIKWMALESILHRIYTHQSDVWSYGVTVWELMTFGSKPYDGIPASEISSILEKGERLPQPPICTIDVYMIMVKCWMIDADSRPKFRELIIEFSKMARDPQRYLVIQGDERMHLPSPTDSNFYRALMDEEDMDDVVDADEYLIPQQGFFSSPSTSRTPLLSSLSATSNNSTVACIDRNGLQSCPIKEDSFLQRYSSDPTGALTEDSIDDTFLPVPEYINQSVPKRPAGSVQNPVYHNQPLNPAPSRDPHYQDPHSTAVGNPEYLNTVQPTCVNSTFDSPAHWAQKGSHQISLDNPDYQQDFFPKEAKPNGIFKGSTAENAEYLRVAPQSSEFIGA

On to `C[C@@H]1[C@H](NC(=O)c2ccc(C(C)(O)CO)cc2)CCCN1c1cnc(C(N)=O)c(Nc2cnn(C)c2)n1` (single isomer, unassigned) [Example D-256], for which the pIC50 on JAK3 and against EGFR was 6.00 to 7.00 throughout.
On to `C[C@@H]1[C@H](NC(=O)c2ccc(C3CC3)cc2F)CCCN1c1cnc(C(N)=O)c(Nc2ccc(N3CCNCC3)c(F)c2)n1` [Example D-313, 5-[(2R,3R)-3-(4-cyclopropyl-2-fluorobenzamido)-2-methylpiperidin-1-yl]-3-{[3-fluoro-4-(piperazin-1-yl)phenyl]amino}pyrazine-2-carboxamide], for which the negative logarithm of the IC50 (pIC50) on JAK3 and against EGFR was 6.00 to 7.00 in each case.
In the case of `C[C@@H]1[C@H](NC(=O)c2ccc(C3CC3)cc2)CCCN1c1cnc(C(N)=O)c(Nc2cnn(C3CCOCC3)c2)n1` [Example D-274, 5-[(2R,3R)-3-(4-cyclopropylbenzamido)-2-methylpiperidin-1-yl]-3-{[1-(oxan-4-yl)-1H-pyrazol-4-yl]amino}pyrazine-2-carboxamide], the pIC50 on JAK3 and on EGFR was 5.00 to 6.00 each time.
`C[C@@H]1[C@H](NC(=O)c2ccc3cnn(C)c3c2)CCCN1c1cnc(C(N)=O)c(Nc2cnn(C)c2)n1` [Example D-259, N-[(2R,3R)-1-{5-carbamoyl-6-[(1-methyl-1H-pyrazol-4-yl)amino]pyrazin-2-yl}-2-methylpiperidin-3-yl]-1-methyl-1H-indazole-6-carboxamide]: the pIC50 at JAK3 and on EGFR was 5.00 to 6.00 in each case.
For the compound `C[C@@H]1[C@H](NC(=O)c2cc(C3CC3)n(C)n2)CCCN1c1cnc(C(N)=O)c(Nc2cnn(C)c2)n1` [Example D-253, 5-[(2R,3R)-3-(5-cyclopropyl-1-methyl-1H-pyrazole-3-amido)-2-methylpiperidin-1-yl]-3-[(1-methyl-1H-pyrazol-4-yl)amino]pyrazine-2-carboxamide], the negative logarithm of the IC50 (pIC50) at JAK3 and against EGFR was 6.00 to 7.00 in each case.
With `C[C@@H]1[C@H](NC(=O)c2ccc(C(O)C(F)(F)F)cc2)CCCN1c1cnc(C(N)=O)c(Nc2cnn(C)c2)n1` (single isomer, unassigned) [Example D-249], the negative-log IC50 (pIC50) at JAK3 and at EGFR was 5.00 to 6.00 in each case.
As to `C[C@@H]1[C@H](NC(=O)c2coc(C3CC3)n2)CCCN1c1cnc(C(N)=O)c(Nc2cnn(C)c2)n1` [Example D-257, 5-[(2R,3R)-3-(2-cyclopropyl-1,3-oxazole-4-amido)-2-methylpiperidin-1-yl]-3-[(1-methyl-1H-pyrazol-4-yl)amino]pyrazine-2-carboxamide], the pIC50 on JAK3 and at EGFR was 6.00 to 7.00 in each case.
For the compound `C[C@@H]1[C@H](NC(=O)c2ccc3nccn3c2)CCCN1c1cnc(C(N)=O)c(Nc2cnn(C)c2)n1` [Example D-266, 5-[(2R,3R)-3-(imidazo[1,2-a]pyridine-6-amido)-2-methylpiperidin-1-yl]-3-[(1-methyl-1H-pyrazol-4-yl)amino]pyrazine-2-carboxamide], the pIC50 on JAK3 and against EGFR was 5.00 to 6.00 each time.
`COCCN(C)Cc1cc(Nc2nc(N3CCC[C@@H](NC(=O)c4ccc(C5CC5)cc4)[C@H]3C)cnc2C(N)=O)sn1` [Example D-269, 5-[(2R,3R)-3-(4-cyclopropylbenzamido)-2-methylpiperidin-1-yl]-3-[(3-{[(2-methoxyethyl)(methyl)amino]methyl}-1,2-thiazol-5-yl)amino]pyrazine-2-carboxamide]: the pIC50 was 5.00 to 6.00 on JAK3 and under 5.00 at EGFR.
The matching figures for `C[C@@H]1[C@H](NC(=O)c2cc(C3CC3)n[nH]2)CCCN1c1cnc(C(N)=O)c(Nc2cnn(C)c2)n1` [Example D-252, 5-[(2R,3R)-3-(3-cyclopropyl-1H-pyrazole-5-amido)-2-methylpiperidin-1-yl]-3-[(1-methyl-1H-pyrazol-4-yl)amino]pyrazine-2-carboxamide]: 6.00 to 7.00 and 6.00 to 7.00.
The matching figures for `CC(=O)N1CCC(n2cc(Nc3nc(N4CCC[C@@H](NC(=O)c5ccc(C6CC6)cc5)[C@H]4C)cnc3C(N)=O)cn2)CC1` [Example D-283, 3-{[1-(1-acetylpiperidin-4-yl)-1H-pyrazol-4-yl]amino}-5-[(2R,3R)-3-(4-cyclopropylbenzamido)-2-methylpiperidin-1-yl]pyrazine-2-carboxamide]: 5.00 to 6.00 and 5.00 to 6.00.
The matching figures for `Cc1nc2cc(C(=O)N[C@@H]3CCCN(c4cnc(C(N)=O)c(Nc5cnn(C)c5)n4)[C@@H]3C)ccc2[nH]1` [Example D-261, N-[(2R,3R)-1-{5-carbamoyl-6-[(1-methyl-1H-pyrazol-4-yl)amino]pyrazin-2-yl}-2-methylpiperidin-3-yl]-2-methyl-1H-1,3-benzodiazole-5-carboxamide]: 5.00 to 6.00 and 6.00 to 7.00.
On to `C[C@@H]1[C@H](NC(=O)c2ccc(C3CC3)cc2)CCCN1c1cnc(C(N)=O)c(Nc2cnn(C)c2F)n1` [Example D-290, 5-[(2R,3R)-3-(4-cyclopropylbenzamido)-2-methylpiperidin-1-yl]-3-[(5-fluoro-1-methyl-1H-pyrazol-4-yl)amino]pyrazine-2-carboxamide], for which the pIC50 on JAK3 was under 5.00; at EGFR, 5.00 to 6.00.
The matching figures for `C[C@@H]1[C@H](NC(=O)c2ccc(N(C)C)cc2)CCCN1c1cnc(C(N)=O)c(Nc2cnn(C)c2)n1` [Example D-24, 5-[(2R,3R)-3-[4-(dimethylamino)benzamido]-2-methylpiperidin-1-yl]-3-[(1-methyl-1H-pyrazol-4-yl)amino]pyrazine-2-carboxamide]: 5.00 to 6.00 and 5.00 to 6.00.
The matching figures for `C[C@@H]1[C@H](NC(=O)c2ccc(C(C)(C)O)cc2)CCCN1c1nnc(C(N)=O)c(Nc2cnn(C)c2)n1` [Example D-298, 3-[(2R,3R)-3-[4-(2-hydroxypropan-2-yl)benzamido]-2-methylpiperidin-1-yl]-5-[(1-methyl-1H-pyrazol-4-yl)amino]-1,2,4-triazine-6-carboxamide]: 6.00 to 7.00 and 5.00 to 6.00.
The matching figures for `C[C@@H]1[C@H](NC(=O)c2ccc(C3CC3)cc2)CCCN1c1cnc(C(N)=O)c(Nc2cnn(-c3ccncc3)c2)n1` [Example D-284, 5-[(2R,3R)-3-(4-cyclopropylbenzamido)-2-methylpiperidin-1-yl]-3-{[1-(pyridin-4-yl)-1H-pyrazol-4-yl]amino}pyrazine-2-carboxamide]: under 5.00 and under 5.00.
For the compound `C[C@@H]1[C@H](NC(=O)c2ccc(C3CC3)cc2)CCCN1c1cnc(C(N)=O)c(Nc2cnn(C3CC3)c2)n1` [Example D-279, 3-[(1-cyclopropyl-1H-pyrazol-4-yl)amino]-5-[(2R,3R)-3-(4-cyclopropylbenzamido)-2-methylpiperidin-1-yl]pyrazine-2-carboxamide], the negative-log IC50 (pIC50) is under 5.00 on JAK3 and 5.00 to 6.00 against EGFR.
The matching figures for `CC(=O)N1CCC(c2ccc(Nc3nc(N4CCC[C@@H](NC(=O)c5ccc(C6CC6)cc5)[C@H]4C)cnc3C(N)=O)cc2)CC1` [Example D-296, 3-{[4-(1-acetylpiperidin-4-yl)phenyl]amino}-5-[(2R,3R)-3-(4-cyclopropylbenzamido)-2-methylpiperidin-1-yl]pyrazine-2-carboxamide]: 5.00 to 6.00 and 6.00 to 7.00.

A word on the pIC50: it is the IC50 on a negative log10 scale, so that one unit is a factor of ten.

The values are drawn from patent US20210070748A1, “INHIBITORS OF BRUTONS TYROSINE KINASE” (Pharmacyclics LLC, priority 2015, published 2021).
